The source of these data is patent US20230271770A1, “Anti-Viral Pharmaceutical Formulations Administered Via Devices for Lung Targeted Delivery” (priority 2020, published 2023).

Read-outs that look alike come from different tables or passages of the source.

Series [1] has as its system SARS-CoV-2. The note with it: Reference [4]; read-out: EC 50, for SARS-Cov2, Treatment 48 hrs; cited from earlier work.
Series [2] deals with SARS-CoV-2. The note with it: Reference [3]; read-out: EC 50, for SARS-Cov2, Treatment 24 hrs; cited from earlier work.
In series [3] the test system is SARS-CoV-2. The note with it: Reference [3], cited from earlier work.
The nature of series [4]: In-line Cascade Impactor (Andersen) evaluation, MDI actuator through elbow connection and ventilator tubing. The class given is physicochemical. Also noted: Delivered <1.1 mcm / Delivered <4.7 mcm: unit not given here. The conditions noted are these: Alveoli, in-Line Tube (55 cm), HCQB-e, connection w/inner channel, Ave, 5% EtOH, 200 mcg. As to the method: An example of a ventilator device, for example ventilator device 1700A, was tested and compared to a self-administrable, handheld MDI to determine the target site delivery efficiency in the ventilator circuit as compared to the MDI delivery efficiency without the ventilator circuit (e.g. no elbow connector or ventilator tubing).
Prime HCQ valve by discharging a predetermined number of actuations to waste. Discharge 10 actuations with actuator H004B-a into the cascade impaction sampling apparatus through an elbow connection w/inner channel and an in-line tubing (55 cm long).
Prime HCQ valve by discharging a predetermined number of actuations to waste. Discharge 10 actuations with actuator H004B-c into the cascade impaction sampling apparatus through an elbow connection with an inner channel and an in-line tubing (55 cm long).
Prime HCQ valve by discharging a predetermined number of actuations to waste. […]

As for `CCN(CC)CCCC(C)Nc1ccnc2cc(Cl)ccc12` (stereo not shown) [CQ, chloroquine], the EC50 in series [1] was 1.13 µM; in series [2], 23.9 µM; in series [3] (read-out: EC 50, for SARS-Cov2, Prophylactic Treatment 24 hrs), > 100 µM; in series [3] (read-out: EC 50, for SARS-Cov2, Prophylactic Treatment 48 hrs), 18 µM.

For the molecule `CCN(CCO)CCCC(C)Nc1ccnc2cc(Cl)ccc12` (stereo not shown) [HICQ Base], the “Delivery Rate” value in series [4] (<1.1 mcm) is 33.0%. The “Delivered <1.1 mcm” value in series [4] is recorded as 66.0.

For `NC(=O)c1ncn([C@@H]2O[C@H](CO)[C@@H](O)[C@H]2O)n1` [Ribavirin], the EC50 in series [1] is 106 µM.
